Experiments:
[1] = Biodistribution of 67Ga complexes in mice; type: in vivo, balb/c mice
Outline: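 Ligand labelled with 67Ga citrate at pH 12, 40 °C for 40 min, diluted in saline and filter-sterilised. Balb/c mice given ~3.7×10^5 Bq intravenously via tail vein; five animals sacrificed at each of six time points.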

[2] = Biodistribution of 99mTc complexes in mice; type: in vivo, Balb/c mice
Outline: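 Chelator (approx. 1 mg/ml final) labelled with 99mTc via excess stannous chloride at pH approx. 6, labelling efficacy checked by ITLC-SG. Complexes diluted to 15 μCi/100 μl in saline before dosing to mice.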

CC(C)(C)c1ccc(O)c(NC(=O)CN(CCN(CC(=O)O)CC(=O)Nc2cc(C(C)(C)C)ccc2O)CC(=O)O)c1 [Compound 4]
biodistribution bone ([1]; 1 min): 3.20 % ID | biodistribution kidney ([1]; 1 min): 6.91 % ID | biodistribution liver ([1]; 1 min): 39.06 % ID | biodistribution muscle ([1]; 1 min): 11.34 % ID | biodistribution skin ([1]; 1 min): 11.94 % ID | biodistribution spleen ([1]; 1 min): 0.15 % ID | biodistribution bone ([1]; 3 min): 1.31 % ID | biodistribution kidney ([1]; 3 min): 2.12 % ID | biodistribution liver ([1]; 3 min): 43.23 % ID | biodistribution muscle ([1]; 3 min): 5.08 % ID | biodistribution skin ([1]; 3 min): 8.12 % ID | biodistribution spleen ([1]; 3 min): 0.04 % ID | biodistribution bone ([1]; 5 min): 0.98 % ID | biodistribution kidney ([1]; 5 min): 1.59 % ID | biodistribution liver ([1]; 5 min): 39.61 % ID | biodistribution muscle ([1]; 5 min): 4.29 % ID | biodistribution skin ([1]; 5 min): 8.22 % ID | biodistribution spleen ([1]; 5 min): 0.03 % ID | biodistribution bone ([1]; 10 min): 0.20 % ID | biodistribution kidney ([1]; 10 min): 0.43 % ID | biodistribution liver ([1]; 10 min): 8.29 % ID | biodistribution muscle ([1]; 10 min): 0.65 % ID | biodistribution skin ([1]; 10 min): 2.92 % ID | biodistribution spleen ([1]; 10 min): 0.00 % ID | biodistribution bone ([1]; 30 min): 0.13 % ID | biodistribution kidney ([1]; 30 min): 0.17 % ID | biodistribution liver ([1]; 30 min): 1.06 % ID | biodistribution muscle ([1]; 30 min): 0.32 % ID | biodistribution skin ([1]; 30 min): 0.18 % ID | biodistribution spleen ([1]; 30 min): 0.00 % ID | biodistribution kidney ([1]; 120 min): 0.07 % ID | biodistribution liver ([1]; 120 min): 0.29 % ID | biodistribution muscle ([1]; 120 min): 0.21 % ID | biodistribution skin ([1]; 120 min): 0.15 % ID | biodistribution spleen ([1]; 120 min): 0.01 % ID | biodistribution GIT ([2]; 1 min): 3.96 % Injected dose | biodistribution bladder ([2]; 1 min): 0.06 % Injected dose | biodistribution blood ([2]; 1 min): 34.01 % Injected dose | biodistribution bone ([2]; 1 min): 6.4 % Injected dose | biodistribution heart ([2]; 1 min): 0.6 % Injected dose | biodistribution kidney ([2]; 1 min): 7.83 % Injected dose | biodistribution liver ([2]; 1 min): 31.82 % Injected dose | biodistribution lungs ([2]; 1 min): 1.29 % Injected dose | biodistribution muscle ([2]; 1 min): 11.85 % Injected dose | biodistribution skin ([2]; 1 min): 8.94 % Injected dose | biodistribution spleen ([2]; 1 min): 0.21 % Injected dose | biodistribution stomach ([2]; 1 min): 0.52 % Injected dose | biodistribution tail ([2]; 1 min): 4.62 % Injected dose | biodistribution urine ([2]; 1 min): 0 % Injected dose | biodistribution GIT ([2]; 3 min): 8.34 % Injected dose | biodistribution bladder ([2]; 3 min): 0.09 % Injected dose | biodistribution blood ([2]; 3 min): 12.06 % Injected dose | biodistribution bone ([2]; 3 min): 2.5 % Injected dose | biodistribution heart ([2]; 3 min): 0.22 % Injected dose | biodistribution kidney ([2]; 3 min): 6.27 % Injected dose | biodistribution liver ([2]; 3 min): 40.23 % Injected dose | biodistribution lungs ([2]; 3 min): 0.56 % Injected dose | biodistribution muscle ([2]; 3 min): 9.92 % Injected dose | biodistribution skin ([2]; 3 min): 9.02 % Injected dose | biodistribution spleen ([2]; 3 min): 0.12 % Injected dose | biodistribution stomach ([2]; 3 min): 0.61 % Injected dose | biodistribution tail ([2]; 3 min): 2.02 % Injected dose | biodistribution urine ([2]; 3 min): 0.84 % Injected dose | biodistribution GIT ([2]; 5 min): 13.7 % Injected dose | biodistribution bladder ([2]; 5 min): 0.04 % Injected dose | biodistribution blood ([2]; 5 min): 7.87 % Injected dose | biodistribution bone ([2]; 5 min): 2.84 % Injected dose | biodistribution heart ([2]; 5 min): 0.16 % Injected dose | biodistribution kidney ([2]; 5 min): 4.18 % Injected dose | biodistribution liver ([2]; 5 min): 30.24 % Injected dose | biodistribution lungs ([2]; 5 min): 0.68 % Injected dose | biodistribution muscle ([2]; 5 min): 7.77 % Injected dose | biodistribution skin ([2]; 5 min): 8.67 % Injected dose | biodistribution spleen ([2]; 5 min): 0.1 % Injected dose | biodistribution stomach ([2]; 5 min): 3.96 % Injected dose | biodistribution tail ([2]; 5 min): 4.63 % Injected dose | biodistribution urine ([2]; 5 min): 1.55 % Injected dose | biodistribution GIT ([2]; 10 min): 33.63 % Injected dose | biodistribution bladder ([2]; 10 min): 0.17 % Injected dose | biodistribution blood ([2]; 10 min): 5.04 % Injected dose | biodistribution bone ([2]; 10 min): 2.08 % Injected dose | biodistribution heart ([2]; 10 min): 0.13 % Injected dose | biodistribution kidney ([2]; 10 min): 3.57 % Injected dose | biodistribution liver ([2]; 10 min): 21.19 % Injected dose | biodistribution lungs ([2]; 10 min): 0.52 % Injected dose | biodistribution muscle ([2]; 10 min): 4.95 % Injected dose | biodistribution skin ([2]; 10 min): 7.3 % Injected dose | biodistribution spleen ([2]; 10 min): 0.07 % Injected dose | biodistribution stomach ([2]; 10 min): 0.7 % Injected dose | biodistribution tail ([2]; 10 min): 3.58 % Injected dose | biodistribution urine ([2]; 10 min): 4.27 % Injected dose | biodistribution GIT ([2]; 30 min): 39.97 % Injected dose | biodistribution bladder ([2]; 30 min): 0.08 % Injected dose | biodistribution blood ([2]; 30 min): 3.88 % Injected dose | biodistribution bone ([2]; 30 min): 1.67 % Injected dose | biodistribution heart ([2]; 30 min): 0.05 % Injected dose | biodistribution kidney ([2]; 30 min): 3.67 % Injected dose | biodistribution liver ([2]; 30 min): 12.48 % Injected dose | biodistribution lungs ([2]; 30 min): 0.26 % Injected dose | biodistribution muscle ([2]; 30 min): 3.35 % Injected dose | biodistribution skin ([2]; 30 min): 4 % Injected dose | biodistribution spleen ([2]; 30 min): 0.06 % Injected dose | biodistribution stomach ([2]; 30 min): 4.84 % Injected dose | biodistribution tail ([2]; 30 min): 1.91 % Injected dose | biodistribution urine ([2]; 30 min): 3.21 % Injected dose

Nc1ccc(O)c(NC(=O)CN(CCN(CC(=O)O)CC(=O)Nc2cc(N)ccc2O)CC(=O)O)c1 [Compound 5]
biodistribution urine ([1]; 1 min): 6.30 % ID | biodistribution urine ([1]; 3 min): 8.94 % ID | biodistribution urine ([1]; 5 min): 15.34 % ID | biodistribution urine ([1]; 10 min): 14.23 % ID | biodistribution urine ([1]; 30 min): 7.76 % ID | biodistribution urine ([1]; 120 min): 3.55 % ID | biodistribution bone ([2]; 1 min): 6.02 % Injected dose | biodistribution kidney ([2]; 1 min): 9.08 % Injected dose | biodistribution liver ([2]; 1 min): 5.72 % Injected dose | biodistribution muscle ([2]; 1 min): 23.78 % Injected dose | biodistribution skin ([2]; 1 min): 18.09 % Injected dose | biodistribution spleen ([2]; 1 min): 0.14 % Injected dose | biodistribution urine ([2]; 1 min): 0 % Injected dose | biodistribution kidney ([2]; 3 min): 8.71 % Injected dose | biodistribution liver ([2]; 3 min): 5.04 % Injected dose | biodistribution muscle ([2]; 3 min): 15.39 % Injected dose | biodistribution skin ([2]; 3 min): 19.66 % Injected dose | biodistribution spleen ([2]; 3 min): 0.16 % Injected dose | biodistribution urine ([2]; 3 min): 2.97 % Injected dose | biodistribution kidney ([2]; 5 min): 6.71 % Injected dose | biodistribution liver ([2]; 5 min): 4.34 % Injected dose | biodistribution muscle ([2]; 5 min): 11.74 % Injected dose | biodistribution skin ([2]; 5 min): 19.83 % Injected dose | biodistribution spleen ([2]; 5 min): 0.12 % Injected dose | biodistribution urine ([2]; 5 min): 6.52 % Injected dose | biodistribution kidney ([2]; 10 min): 5.97 % Injected dose | biodistribution liver ([2]; 10 min): 5.34 % Injected dose | biodistribution muscle ([2]; 10 min): 9.67 % Injected dose | biodistribution skin ([2]; 10 min): 23.93 % Injected dose | biodistribution spleen ([2]; 10 min): 0.11 % Injected dose | biodistribution urine ([2]; 10 min): 10.66 % Injected dose | biodistribution kidney ([2]; 30 min): 3.75 % Injected dose | biodistribution liver ([2]; 30 min): 2.86 % Injected dose | biodistribution muscle ([2]; 30 min): 23.84 % Injected dose | biodistribution skin ([2]; 30 min): 17.37 % Injected dose | biodistribution spleen ([2]; 30 min): 0.06 % Injected dose | biodistribution urine ([2]; 30 min): 5.91 % Injected dose

Reference: patent publication US5807535A, “Metal complexes of hydroxyaryl containing aminocarboxylic acid chelating agents” (Australian Nuclear Science & Technology Organisation, priority 1992, dated 1998)
